Measurements taken from patent publication US7691392B2 (Kosan Biosciences Incorporated, priority 2005, dated 2010).
Entries after “also recorded” stand apart in the source; their conditions may differ.

Assays:
multiple myeloma = test: Anti-myeloma response (Bladé criteria) in the dose escalating trial; assay type: in vivo, human
Method: The method of the invention was tested in an open-label, dose escalating clinical trial.
Disease response evaluations were performed following every two cycles of treatment (approximately every 6 weeks). The determination of anti-tumor efficacy in stable or responding patients was based on objective tumor assessments made according to a standardized myeloma response assessment system.
All patients with responding tumors (CR or PR) were examined to confirm the response 6 weeks after the first documentation of response.

CD138+ myeloma cells = test: Abnormal mitochondrial potential (apoptosis) of CD138+ cells from bone marrow aspirates; assay type: in vivo, human
Source text: PD assessment included the following tests: The occurrence of specific toxicities (e.g., severity, duration and reversibility) was compared to PK parameters (e.g., clearance, exposure, elimination half-life, maximal plasma concentration, and time above a target plasma concentration). These toxicities included hepatotoxicity and gastrointestinal toxicities. The laboratory correlates included a) surface expression of insulin-like growth factor receptor-1 (IGF-1R) and b), total expression of Akt, Hsp90 and Hsp70. […] Immunoblotting analyses were used to evaluate the total levels of Akt, Hsp90 and Hsp70. […] Finally, peripheral blood mononuclear cells were isolated on two occasions (the first and last infusion in Cycle 1, on Days 1 and 11) prior to and 4 hours following the infusion. Cells were examined for change in client protein expression by Western Blot. Client proteins of interest include Hsp70, RAF1, LCK and CDK4 and others as indicated.
MM cells were purified by a Fluorescence Activated Cell Sorter (FACS) from the BMA based upon CD138 expression. These CD138^+ cells collected were then tested for abnormal mitochondrial potential by measuring mitochondrial potential in plasma cells using […] (BD Biosciences, San Jose, Calif.). […] Abnormal mitochondrial potential is observed prior to apoptosis of that cell (programmed cell death).

solid tumors = details: adult patients with solid tumors; cited from earlier work
[1] = tested on: solid tumors and lymphomas; details: patients with solid tumors and lymphomas; cited from earlier work
Hsp70 = details: 320-450 mg/m^2/week; cited from earlier work
CDK4 = details: at 24 hours; cited from earlier work
[2] = tested on: SKBr3 breast cancer cells; details: exposure to 17-AAG; cited from earlier work
leukemia cells = details: exposure to 17-AAG; cited from earlier work
[3] = tested on: lung cancer cells with wild-type Rb; details: exposure to 17-AAG; cited from earlier work
[4] = patients treated at 56 mg/m^2 17-AAG; cited from earlier work
[5] = daily for 5 days every 3 weeks; cited from earlier work
[6] = weekly 17-AAG, 3 weeks out of a 4 week cycle; cited from earlier work
[7] = weekly dosing schedule; cited from earlier work
plasma protein = test: Plasma protein binding, in vitro assays using human blood

For `C=CCNC1=C2C[C@@H](C)C[C@H](OC)[C@H](O)[C@@H](C)/C=C(\C)[C@H](OC(N)=O)[C@@H](OC)/C=C\C=C(/C)C(=O)NC(=CC1=O)C2=O` [17-AAG, 17-Allylamino-17-demethoxygeldanamycin], the disease response (multiple myeloma; 150 mg/m^2 twice weekly 2 of 3 weeks, four evaluable patients) was “One showed a MR; also recorded: one patient had a MR, two had stable disease and one had progressive disease”, the disease response (multiple myeloma; 220 mg/m^2 twice weekly 2 of 3 weeks, seven evaluable patients) was “four are stable disease and three are progressive disease; also recorded: four patients had stable disease and three had progressive disease” and the disease response (multiple myeloma; 275 mg/m^2 twice weekly 2 of 3 weeks, three evaluable patients) was “all three had stable disease”. For the same compound, the disease response (multiple myeloma; 340 mg/m^2 twice weekly 2 of 3 weeks, five evaluable patients) was “two patients had stable disease and three had progressive disease”, the “percent of patients with stable disease” value (multiple myeloma; 19 evaluable patients, after three or more cycles) was 58% and the “percent of patients with response (MR)” value (multiple myeloma; 19 evaluable patients, all dose levels) was 5%. For the same compound, the “reduction of urine M-protein” value (multiple myeloma; one patient considered a PR, withdrawn for skin rash and wheezing) was 90%, the “reduction of urine M-protein” value (multiple myeloma; one patient, 150 mg/m^2, after two cycles (MR), FIG. 12) was 41% and the “reduction of serum M-spike” value (multiple myeloma; one patient, 275 mg/m^2, after eight cycles (stable disease), FIG. 13) was 11%. For the same compound, the “percent of CD138+ cells with abnormal mitochondrial potential in BM” value (CD138+ myeloma cells; Day 11 of treatment (less than 5% prior to treatment), p=0.06, FIG. 9) was “more than 40%”, the “increase in percent of cells with abnormal mitochondrial potential” value (CD138+ myeloma cells; Day 11 versus prior to treatment) was “more than 35%” and the “apoptosis in BMAs” value (CD138+ myeloma cells; screening versus Day 11, 150 and 220 mg/m^2 doses) was “increased apoptosis; also recorded: increase in apoptosis”. The objective tumor responses (solid tumors) was “No objective tumor responses were observed”, the objective tumor responses [1] was “No objective tumor responses have been observed” and the “patients with induction of the co-chaperone protein Hsp70” value (Hsp70) was 8 of 9. The “patients with depletion of CDK4 in tumor biopsies” value (CDK4) was 8 out of 9, the “effect on client proteins” value [2] was “depletion of erbB2 and destabilization of Raf-1 and mutant p53” and the “effect on client proteins” value (leukemia cells) was “down-regulation of intracellular Bcr-Ab1 and c-Raf proteins and reduction of Akt kinase activity”. The “effect on client proteins” value [3] was “degradation of cdk4, cdk6, and cyclin E”, the Vz [4] was 93 L/m^2 and the clearance [4] was 19.9 L/h/m^2. The “maximum tolerated dose (MTD) and recommended Phase 2 dose” value [5] was 40 mg/m^2, the MTD [6] was 308 mg/m^2 and the Vss [7] was 130 ± 50 L. The t1/2 [7] was 2.98 ± 1.0 h and the “protein bound in plasma” value (plasma protein) was “approximately 95%”.
